Measured values published in patent US7947740B2, “Bimatoprost crystalline form I” (Finetech Pharmaceutical Ltd, priority 2006, dated 2011).

Tests used:
[1] = Storage stability (retest period) of the crystalline form; format: physicochemical
Protocol: (§1) Stability data supports the retest period of not less than 6 months if bimatoprost crystalline form I is stored in an appropriate container at 2 to 8° C. and at 25° C.

[2] = Thermodynamic stability of the crystalline modifications of bimatoprost; format: physicochemical; conditions: temperature range between −70 and +30° C.
Protocol: as §1
The importance of bimatoprost crystalline form I rests primarily (but not exclusively) in its thermodynamic stability. […] For example, the crystalline form I may be easily prepared by recrystallizing, triturating, or reslurring of crystalline form A.

CCNC(=O)CCC/C=C\C[C@@H]1[C@@H](/C=C/[C@@H](O)CCc2ccccc2)[C@H](O)C[C@@H]1O [Bimatoprost crystalline form I, (9S,11R,15S)-9,11,15-trihydroxy-17-phenyl-18,19,20-trinor-5Z,13E-prostadienoic acid ethylamide]
retest period supported by stability data ([1]; stored in an appropriate container at 2 to 8° C.): not less than 6 months | retest period supported by stability data ([1]; stored in an appropriate container at 25° C.): not less than 6 months | relative stability among crystalline modifications of bimatoprost [2]: most stable crystalline modification
